Assay results as given in BindingDB's records for doi:10.1111/cbdd.12126 (Shaoyang University, 2013).
pIC50: −log10 of the molar value.

Molecular target: T1, Polyphenol oxidase 2 (Agaricus bisporus, UniProt O42713)
T1 sequence (O42713 whole entry): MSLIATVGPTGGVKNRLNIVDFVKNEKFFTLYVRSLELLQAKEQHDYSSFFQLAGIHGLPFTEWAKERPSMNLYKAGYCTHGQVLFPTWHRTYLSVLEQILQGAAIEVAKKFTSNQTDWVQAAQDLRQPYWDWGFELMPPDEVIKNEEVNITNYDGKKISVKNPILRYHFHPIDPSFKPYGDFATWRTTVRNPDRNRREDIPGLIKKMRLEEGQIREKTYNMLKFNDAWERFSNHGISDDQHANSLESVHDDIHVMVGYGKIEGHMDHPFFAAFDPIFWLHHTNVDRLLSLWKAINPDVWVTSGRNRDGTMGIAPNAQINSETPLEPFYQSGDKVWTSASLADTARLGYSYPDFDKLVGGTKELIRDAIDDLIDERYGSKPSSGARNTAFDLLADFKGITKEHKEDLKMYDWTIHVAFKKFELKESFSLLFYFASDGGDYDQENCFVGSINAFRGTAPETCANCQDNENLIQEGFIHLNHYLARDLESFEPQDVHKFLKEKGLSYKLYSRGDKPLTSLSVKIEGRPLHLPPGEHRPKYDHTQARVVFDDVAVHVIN
Test: Spectrophotometric Assay
Conditions: pH 6.8; 25 °C
Description: All compounds were dissolved in DMSO (final DMSO concentration in test solution was 2.0%). Phosphate buffer, pH 6.8, was use to dilute the DMSO stock solution of test compounds. Thirty units of mushroom tyrosinase (0.5 mg/mL) were first pre-incubated with the compounds, in 50 mM phosphate buffer (pH 6.8), for 10 min at 25°C, followed by addition of L-DOPA (0.5 mM). The enzyme reaction was monitored by measuring the change in absorbance at 475 nm of formation of the DOPA chrome for 1 min. The measurement was performed in triplicate for each concentration and averaged before further calculation.

Compound | pIC50
O=C(/C=C/c1ccccc1)c1ccc(O)cc1O [1-(2,4-dihydroxyphenyl)-3-phenylprop-2-en-1-one (4)] | 3.96
O=C(/C=C/c1ccccc1)c1cccc(Cl)c1 [1-(3-chlorophenyl)-3-phenylprop-2-en-1-one (11)] | 3.93
COc1ccc(C(=O)/C=C/c2ccccc2)cc1 [1-(4-methoxyphenyl)-3-phenylprop-2-en-1-one (6)] | 3.85
